Data: publication PMC6072243 (ACS Omega, 2018)
Where two headings read alike, the source gives them in different places.

Legend:
p38α MAPK = p38α MAPK (Homo sapiens, UniProt Q16539); experiment: p38α MAPK enzyme-linked immunosorbent assay; format: biochemical; conditions: for inhibition at 10 µM: read-out: Percent inhibition of p38α MAPK at indicated concentration
JNK3 = JNK3 (Homo sapiens, UniProt P53779); experiment: JNK3 enzyme-linked immunosorbent assay; format: biochemical; conditions: for inhibition at 10 µM: read-out: Percent inhibition of JNK3 at indicated concentration
Sequence of JNK3 (P53779 whole entry): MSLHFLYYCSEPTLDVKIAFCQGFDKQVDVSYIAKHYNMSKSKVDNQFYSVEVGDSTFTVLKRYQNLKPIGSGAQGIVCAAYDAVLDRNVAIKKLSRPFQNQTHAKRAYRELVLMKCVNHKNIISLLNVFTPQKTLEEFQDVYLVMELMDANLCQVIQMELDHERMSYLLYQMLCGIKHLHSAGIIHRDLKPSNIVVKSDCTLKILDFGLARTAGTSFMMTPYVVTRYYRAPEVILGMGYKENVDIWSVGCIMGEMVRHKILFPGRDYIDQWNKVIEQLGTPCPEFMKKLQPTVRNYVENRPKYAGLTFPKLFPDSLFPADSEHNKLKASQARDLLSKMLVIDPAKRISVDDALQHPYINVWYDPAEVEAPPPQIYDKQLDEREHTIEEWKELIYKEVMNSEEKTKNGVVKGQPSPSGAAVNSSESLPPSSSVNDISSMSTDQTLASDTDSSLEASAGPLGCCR

Sequence of p38α MAPK (Q16539 whole entry): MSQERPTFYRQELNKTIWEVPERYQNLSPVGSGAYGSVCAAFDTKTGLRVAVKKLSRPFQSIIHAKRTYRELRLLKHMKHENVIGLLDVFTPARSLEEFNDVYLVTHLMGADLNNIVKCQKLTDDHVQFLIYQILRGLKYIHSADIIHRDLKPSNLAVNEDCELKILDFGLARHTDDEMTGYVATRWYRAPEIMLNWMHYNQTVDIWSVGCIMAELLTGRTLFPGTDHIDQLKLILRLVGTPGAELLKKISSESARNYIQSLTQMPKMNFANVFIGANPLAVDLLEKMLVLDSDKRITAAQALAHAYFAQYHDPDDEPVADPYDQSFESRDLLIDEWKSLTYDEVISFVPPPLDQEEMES

Row | Compound | IC50 (p38α MAPK) | inhibition at 10 µM (p38α MAPK) | IC50 (JNK3) | inhibition at 10 µM (JNK3) | IC50 (JNK3; read-out: IC50 ± SD JNK3, ELISA, mean of three experiments (SP600125 n = 16))
1 | CC(C)(C)c1nc[nH]c1-c1ccnc(Nc2ccc(N3CCOCC3)cc2)c1 [Compound 18k, 4-(4-(tert-Butyl)-1H-imidazol-y-yl)-N-(4-morpholinophenyl)pyridin-2-amine] | > 10000 nM | 41% | > 10000 nM | 32% | 
2 | CSc1nc(C)c(-c2ccnc(Nc3ccc(N4CCOCC4)cc3)c2)n1C [Compound 57, 4-(1,4-Dimethyl-2-(methylthio)-1H-imidazol-5-yl)-N-(4-morpholinophenyl)pyridin-2-amine] | > 10000 nM | 10% | 2510 nM |  | 
3 | CSc1nc(C)c(-c2ccnc(N[C@H]3CC[C@H](NC(=O)C4CCCCC4)CC3)c2)[nH]1 [Compound 48k, N-(trans-4-((4-(4-Methyl-2-(methylthio)-1H-imidazol-5-yl)pyridin-2-yl)amino)cyclohexyl)cyclohexanecarboxamide] | > 10000 nM | 10% | 2230 nM |  | 
4 | CC(C)c1nc[nH]c1-c1ccnc(Nc2ccc(N3CCOCC3)cc2)c1 [Compound 18l, 4-(4-Isopropyl-1H-imidazol-5-yl)-N-(4-morpholinophenyl)pyridin-2-amine] | 10000 nM | 50% | 2830 nM |  | 
5 | CSc1nc(C)c(-c2ccnc(Nc3ccc(NC(=O)C4CCCCC4)cc3)c2)[nH]1 [Compound 48p, N-(4-((4-(4-Methyl-2-(methylthio)-1H-imidazol-5-yl)pyridin-2-yl)amino)phenyl)cyclohexanecarboxamide] | > 10000 nM | 27% | 1540 nM |  | 
6 | Cn1ccnc1-c1ccnc(Nc2ccc(N3CCOCC3)cc2)c1 [Compound 71, 4-(1-Methyl-1H-imidazol-2-yl)-N-(4-morpholinophenyl)pyridin-2-amine] | > 10000 nM | 15% | > 10000 nM | 42% | 
7 | CSc1nc(C)c(-c2ccnc(N[C@H]3CC[C@H](NC(=O)C(C)(C)C)CC3)c2)[nH]1 [Compound 48l, N-(trans-4-((4-(4-Methyl-2-(methylthio)-1H-imidazol-5-yl)pyridin-2-yl)amino)cyclohexyl)pivalamide] | > 10000 nM | 13% |  |  | 
8 | CCc1nc(-c2ccc(F)cc2)c(-c2ccnc(Nc3ccc(N4CCOCC4)cc3)c2)[nH]1 [Compound 13, 4-(2-Ethyl-4-(4-fluorophenyl)-1H-imidazol-5-yl)-N-(4-morpholinophenyl)pyridin-2-amine] | 9 ± 4 nM |  | 34 ± 0.2 nM |  | 
9 | CCc1nc[nH]c1-c1ccnc(Nc2ccc(N3CCOCC3)cc2)c1 [Compound 39, 4-(4-Ethyl-1H-imidazol-5-yl)-N-(4-morpholinophenyl)pyridin-2-amine] | > 10000 nM | 34% |  |  | 
10 | c1cc(-c2[nH]cnc2C2CC2)cc(Nc2ccc(N3CCOCC3)cc2)n1 [Compound 18j, 4-(4-Cyclopropyl-1H-imidazol-5-yl)-N-(4-morpholinophenyl)pyridin-2-amine] | 4020 nM |  | 1080 nM |  | 
11 | c1ccc2cc(-c3nc[nH]c3-c3ccnc(Nc4ccc(N5CCOCC5)cc4)c3)ccc2c1 [Compound 18e, N-(4-Morpholinophenyl)-4-(4-(naphthalen-2-yl)-1H-imidazol-5-yl)pyridin-2-amine] | 16 ± 3 nM |  | 31 ± 3 nM |  | 
12 | CSc1nc(C)c(-c2ccnc(Nc3ccc(NC(=O)c4ccccc4)cc3)c2)[nH]1 [Compound 48o, N-(4-((4-(4-Methyl-2-(methylthio)-1H-imidazol-5-yl)pyridin-2-yl)amino)phenyl)benzamide] | > 10000 nM | 33% | 432 ± 37 nM |  | 
13 | c1cc(-c2[nH]cnc2C2CCCC2)cc(Nc2ccc(N3CCOCC3)cc2)n1 [Compound 18h, 4-(4-Cyclopentyl-1H-imidazol-5-yl)-N-(4-morpholinophenyl)pyridin-2-amine] | 1720 nM |  |  |  | 2190 nM
14 | c1ccc(-c2nc[nH]c2-c2ccnc(Nc3ccc(N4CCOCC4)cc3)c2)cc1 [Compound 18a, N-(4-Morpholinophenyl)-4-(4-phenyl-1H-imidazol-5-yl)pyridin-2-amine] | 24 ± 3 nM |  | 37 ± 3 nM |  | 
15 | CSc1nc(C)c(-c2ccnc(NC(C)C(C)C)c2)[nH]1 (stereo not shown) [Compound 48a, 4-(4-Methyl-2-(methylthio)-1H-imidazol-5-yl)-N-(3-methylbutan-2-yl)pyridin-2-amine] | > 10000 nM | 34% | 2590 nM |  | 
16 | Oc1c2ccccc2c2c3c(cccc13)N=N2 [SP600125, reference compound] |  |  | 171 ± 36 nM |  | 
17 | CSc1nc(C)c(-c2ccnc(N[C@H]3CC[C@H](NC(=O)c4ccccc4)CC3)c2)[nH]1 [Compound 48j, N-(trans-4-((4-(4-Methyl-2-(methylthio)-1H-imidazol-5-yl)pyridin-2-yl)amino)cyclohexyl)benzamide] | > 10000 nM | 12% |  |  | 
